Measurements reported in the NIST ThermoML archive (doi:10.1016/j.jct.2017.07.014).

Assays:
[1] = refractive index (other wavelength) (dimensionless); conditions: 108 kPa, Liquid, Wavelength=632.8 nm, minimum deviation method
[2] = refractive index (other wavelength) (dimensionless); xn = mol fraction of the nth substance listed; conditions: 108 kPa, Liquid, Wavelength=632.8 nm, minimum deviation method, x2 = 0

CCCCn1cc[n+](C)c1.F[P-](F)(F)(F)(F)F [1-butyl-3-methylimidazolium hexafluorophosphate]
[1]
Conditions	refractive index
315.21 K	1.4038
317.26 K	1.4032
319.23 K	1.4027
321.47 K	1.4021
323.47 K	1.4016
325.4 K	1.4011

CCO [ethanol]
[1]
Conditions	refractive index
315.24 K	1.3509
317.21 K	1.3501
319.26 K	1.3492
321.31 K	1.3483
323.3 K	1.3474
325.39 K	1.3465

CCO [ethanol] + CCCCn1cc[n+](C)c1.F[P-](F)(F)(F)(F)F
[2]
Conditions	refractive index
315.24 K	1.3509
317.21 K	1.3501
319.26 K	1.3492
321.31 K	1.3483
323.3 K	1.3474
325.39 K	1.3465
